Reference: the NIST ThermoML archive (doi:10.1016/j.jct.2016.03.026)

Assay: xn = mol fraction of the nth substance listed
Settings: 283.15 K, Fluid (supercritical or subcritical phases), Vibrating tube method, x1 = 0.97

O=C=O [carbon dioxide] + CO
Settings	mass density [kg/m3]
11975 kPa	937.23
12000 kPa	937.33
12025 kPa	937.53
12050 kPa	937.68
12075 kPa	937.82
12100 kPa	937.98
12125 kPa	938.14
12150 kPa	938.31
12175 kPa	938.47
12200 kPa	938.63
12225 kPa	938.8
12250 kPa	938.96
12275 kPa	939.1
12300 kPa	939.21
12325 kPa	939.37
12350 kPa	939.53
12375 kPa	939.7
12400 kPa	939.86
12425 kPa	940.02
12450 kPa	940.19
12475 kPa	940.27
12500 kPa	940.45
12525 kPa	940.59
12550 kPa	940.76
12575 kPa	940.92
12600 kPa	941.08
12625 kPa	941.25
12650 kPa	941.41
12675 kPa	941.57
12700 kPa	941.74
12725 kPa	941.87
12750 kPa	942.06
12775 kPa	942.16
12800 kPa	942.34
12825 kPa	942.47
12850 kPa	942.63
12875 kPa	942.8
12900 kPa	942.96
12925 kPa	943.13
12950 kPa	943.22
12975 kPa	943.37
13000 kPa	943.53
13025 kPa	943.7
13050 kPa	943.86
13075 kPa	944.02
13100 kPa	944.17
13125 kPa	944.27
13150 kPa	944.43
13175 kPa	944.59
13200 kPa	944.76
13225 kPa	944.92
13250 kPa	945.05
13275 kPa	945.17
13300 kPa	945.33
13325 kPa	945.49
13350 kPa	945.66
13375 kPa	945.77
13400 kPa	945.9
13425 kPa	946.06
13450 kPa	946.23
13475 kPa	946.39
